From patent EP0085866A1, “Derivatives of benzo-1,2-thiazine-1,1-dioxide, a process for their preparation and pharmaceutical compositions containing the same” (priority 1982, dated 1983)
Where two headings read alike, the source gives them in different places.

How the values were obtained:
[1] = Acute toxicity by single oral administration; assay type: in vivo; details: mouse, in vivo
Description: (§1) The toxicity by single administration has been determined by oral route in male mice IVA:NMRI (SPF), fasting, with water ad libitum 18 hours before the experiment. The substances under exam were suspended in 1% carboxymethylcellulose.

[2] = system: oedema induced in the rat's paw by carrageenin; experiment: Antiinflammatory activity in the test of plantar edema by carrageenin; assay type: in vivo, Crl: CD(SD) male rats; details: for ED30: Rattus norvegicus, po; for antiinflammatory activity (in words): comparison with piroxicam, rat
Description: Crl: CD(SD) male rats, weighing 170-205 g, previously subjected to an acclimation period of at least one week through housing in environment with co.stant thermohygrometric conditions and fa sting with water ad libitum 18 hours before the start of the test, have been distributed "at ran dom" in groups of 5-6 animals each (4 groups cor responding to 4 different dose levels for each compound). A group of control animals has been treated only with the vehicle. […] Soc. Exp. Biol. Med. 111, 544, 1962). The volume of the treated paw has been measured by means of a water-mercury pletismometer according to Leuce P., Arch. Int. Pharmacodyn. 136, 237, 1962) immediately before and at different […] injection of the phlogogenic agent. The results have been expressed as ED30 values calculated on the logarithmic regression straight lines of the percent dose/inhibition of the oedema development, in turn determined from the ratio between the mean AUC value (area under the curve representing the development of the paw volume in the time) in the different treated animals groups and the respective control groups.

gastric mucosa = experiment: Gastrolesive activity (macroscopic control of the gastric mucosa); assay type: in vivo, Crl: CD(SD) male rats; details: for Therapeutic index UD3/ED30 / Gastrolesive activity UD3: oral route, exp. session I and II (r4-r7); for Therapeutic index UD3/ED30: rat; for Gastrolesive activity UD3: dose expected to give gastric lesion of total extension of 3 mm, 7 hours after administration; for improvement of tolerability (in words): versus parent compound piroxicam
Text: On the ground of such lines the calculation of UD3 values, that is a dose whereby a gastric lesion of the total extension of 3 mm is expected, has been performed.

male mice IVA:NMRI (SPF) = experiment: Acute toxicity by single oral administration; assay type: in vivo; details: versus piroxicam
Description: as §1

[3] = system: plantar oedema by nystatin in the rat; experiment: Plantar oedema by nystatin; assay type: in vivo; details: on molar basis, times as active as piroxicam
Text: (§2) In other tests of direct comparison between piro xicam and CHF 1021, the latter confirmed its anti inflammatory activity, along with a good analgesic and antipiretic activity.

[4] = system: erythema by U.V. in the guinea pig; experiment: Erythema by U.V.; assay type: in vivo; details: on molar basis, times as active as piroxicam
Text: as §2

[5] = system: writhing test by phenylquinone in the mouse; experiment: Writhing test by phenylquinone; assay type: in vivo; details: on molar basis, times as active as piroxicam
Text: as §2

fever by beer's yeast = experiment: Fever by beer's yeast; assay type: in vivo, reat; details: on molar basis, times as active as piroxicam
Text: as §2

[6] = system: arthritis by adjuvant in the rat; experiment: Arthritis by adjuvant; assay type: in vivo; details: direct comparison with piroxicam
Text: as §2

[7] = Preliminary clinical data; assay type: in vivo
[8] = 1 hour before carrageenin, from inhibition of oedema AUC, exp. session I and II (r4-r7)
[9] = single administration, oral route, fasting male mice, suspended in 1% carboxymethylcellulose, interpolation on Probit paper, read-out: Approx. LD50

SMILES	LD50 ([1]; po)	ED30 [2, 8]	antiinflammatory activity (in words) ([2]; oral route)	Therapeutic index UD3/ED30 (gastric mucosa)	Gastrolesive activity UD3 (gastric mucosa)	ulcerogenic potency ratio (gastric mucosa; ratio to piroxicam taken as 1)	improvement of tolerability (in words) (gastric mucosa)	LD50 [1, 9]	acute toxicity, lower in comparison to the reference compound (male mice IVA:NMRI (SPF))	ulcerogenic activity, times lower in comparison to the reference compound (gastric mucosa; versus piroxicam)	potency ratio (ratio between ED50 values) [3]	potency ratio (ratio between ED50 values) [4]	potency ratio (ratio between ED50 values) [5]	potency ratio (ratio between ED50 values) (fever by beer's yeast)	activity on the arthritis by adjuvant (in words) [6]	antiinflammatory activity in comparison with piroxicam (in words) [7]	incidence of side effects relative to the reference drug ([7]; fraction of that of piroxicam)	Antiinflammatory activity ED30 ([2]; oral route, 1 hour before carrageenin, from inhibition of oedema AUC, exp. session I and II (r4-r7))
CCCC(=O)OC1=C(C(=O)Nc2ccccn2)N(C)S(=O)(=O)c2ccccc21 [CHF 1115]	880 mg/kg	5.7 µmol/kg	analogous or also slightly higher than the one of the parent compound	4.2	23.9 µmol/kg	0.88	do not show an improvement	–	–	–	–	–	–	–	–	–	–	–
CN1C(C(=O)Nc2nccs2)=C(OC(=O)C(C)(C)C)c2ccccc2S1(=O)=O [CHF 1047, 4-pivaloyloxy-2-methyl-2H-1,2-benzothiazine-3-[N-(2-thiazolyl)-carboxamide]-1,1-dioxide]	–	~762 µmol/kg	very low	0.2	121.2 µmol/kg	–	–	> 3000 mg/kg	–	–	–	–	–	–	–	–	–	–
CN1C(C(=O)Nc2ccccn2)=C(OC(=O)C(C)(C)C)c2ccccc2S1(=O)=O [CHF 1021, 4-Pivaloyloxy-2-methyl-2H-1,2-benzothiazine-3-[N-(2-pyridyl)-carboxamide]-1,1-dioxide]	–	7.9 µmol/kg	comparable to the one of the reference compound	12.3	97.2 µmol/kg	–	–	1800 mg/kg	about 35%	at least 10 times	1.52	0.49	0.72	0.71	almost equally active	practically equally active	about 1/3	–
CCCCC(=O)OC1=C(C(=O)Nc2ccccn2)N(C)S(=O)(=O)c2ccccc21 [CHF 1109]	1100 mg/kg	7 µmol/kg	analogous or also slightly higher than the one of the parent compound	4.0	28.2 µmol/kg	–	do not show an improvement	–	–	–	–	–	–	–	–	–	–	–
CN1C(C(=O)Nc2ccccn2)=C(O)c2ccccc2S1(=O)=O [piroxicam, reference compound]	–	7.8 µmol/kg	–	–	–	–	–	345 mg/kg	–	–	–	–	–	–	–	–	–	9.7 µmol/kg
